{"source": "patent US9161946B2", "about": "“Dosing methods for treating disease” (Anadys Pharmaceuticals, Inc., priority 2007, dated 2015)", "type_in_all_cases": "in vivo, cynomolgus macaques", "key": {"[1]": {"test_system": "B cell in peripheral blood leukocytes", "assay": "B cell proliferative state, flow cytometry of Ki67", "details": "3 on 4 off schedule, repeated courses, FIG. 4B (100 mg/kg)", "experimental": "(§1) The pharmacodynamic response of a continuous daily dosing schedule (QD) was compared to a cyclic dosing schedule of every-other-day (QOD) and a cyclic dosing schedule of 3 consecutive days of dosing followed by 4 consecutive days of resting (‘3 on 4 off’). All three dosing schedules were conducted with orally administered Compound I Tosylate. Immune parameters measured include cytokine and chemokine secretion in plasma measured by multiplexed immunoassay, neopterin levels in plasma measured by Enzyme Linked Immunosorbant Assay (ELISA), and cytotoxic T cell (CD8 T) effector proliferative state and B cell proliferative state in peripheral blood leukocytes as measured by flow cytometry analysis of Ki67 levels.\n(§2) Cynomolgus macaques were given either 30 mg/kg or 100 mg/kg of Compound I as the tosylate according to a dosing schedule of 3 consecutive days of dosing followed by 4 consecutive days of resting (‘3 on 4 off’) over 3 or 8 weeks. The immune response was determined by measuring cytokine and neopterin levels in plasma, as well as B cell and T cell responses in peripheral blood."}, "IFN-α": {"test_system": "IFN-α", "assay": "IFN-α level in plasma after oral dosing, multiplexed immunoassay", "details": "for Mean Concentration of IFN-α: oral; for IFN-α levels on the third day of the cycle: 3 on 4 off, 100 mg/kg, average±SEM, n=4", "experimental": "as §1\nCynomolgus macaques were given 10, 30, 100 or 300 mg/kg (Compound I equivalents) of Compound I Tosylate according to an every-other-day dosing schedule for 14 days, 28 days, or 13 weeks followed by recovery periods of various lengths. The immune response was determined by measuring cytokine and neopterin levels in plasma, as well as B cell and T cell responses in peripheral blood.\nas §2\n(§3) Cynomolgus macaques were given either 30 mg/kg or 100 mg/kg of Compound I as the tosylate or 2 mg/kg 852A for 7 consecutive days of QD dosing followed by 7 days of additional monitoring. The immune response was determined by measuring cytokine and neopterin levels in plasma, as well as B cell and T cell responses in peripheral blood."}, "[2]": {"test_system": "cytotoxic T cell (CD8 T) in peripheral blood leukocytes", "assay": "Cytotoxic T cell (CD8 T) effector proliferative state, flow cytometry of Ki67", "details": "3 on 4 off schedule, FIG. 3B (100 mg/kg)", "experimental": "as §1, §2"}, "neopterin": {"test_system": "neopterin", "assay": "Neopterin level in plasma, ELISA", "details": "QD schedule, 7 consecutive days, FIG. 1C (100 mg/kg)", "experimental": "as §1, §3"}, "IL-12": {"test_system": "IL-12", "assay": "IL-12 in plasma after 3rd dose, multiplexed immunoassay", "details": "after 3rd dose of 100 mg/kg, pre-treatment subtracted, p<0.05", "source_text": "(§4) Each point indicates an individual animal. Fine lines indicate geometric mean. * indicates significant difference (p<0.05) between pre-treatment and post-dose values; ns: not significant. Non-responders are defined as animals with baseline interferon-α values after both the 1st and 2nd doses. Three such animals were excluded in the QOD group (n=7 final). No animals were excluded from the QD group (n=20 final).\nas §1, with “All three dosing schedules were conducted with orally administered Compound I Tosylate.” left out, “levels. […]” for “levels.”\nas §3"}, "IL-6": {"test_system": "IL-6", "assay": "IL-6 in plasma after 3rd dose, multiplexed immunoassay", "details": "after 3rd dose of 100 mg/kg", "source_text": "as §4\nas §1, with “All three dosing schedules were conducted with orally administered Compound I Tosylate.” left out, “levels. […]” for “levels.”\nas §3"}, "MCP-1": {"test_system": "MCP-1", "assay": "MCP-1 in plasma after 3rd dose, multiplexed immunoassay", "details": "after 3rd dose of 100 mg/kg, pre-treatment subtracted, p<0.05", "source_text": "as §4\nas §1, with “All three dosing schedules were conducted with orally administered Compound I Tosylate.” left out, “levels. […]” for “levels.”\nas §3"}, "TNF-α": {"test_system": "TNF-α", "assay": "TNF-α in plasma after 3rd dose, multiplexed immunoassay", "details": "after 3rd dose of 100 mg/kg, QD (D3) versus QOD (D5)", "source_text": "as §4\nas §1, with “All three dosing schedules were conducted with orally administered Compound I Tosylate.” left out, “levels. […]” for “levels.”\nas §3"}, "[3]": {"details": "QD schedule, 100 mg/kg per dose, p<0.05"}}, "data": [{"smiles": "CC(=O)O[C@@H]1C[C@@H](CO)O[C@H]1n1c(=O)sc2cnc(N)nc21.Cc1ccc(S(=O)(=O)O)cc1", "note": "[Compound I Tosylate]", "values": [{"measurement": "B cell proliferative state as measured by Ki67 levels", "setting": "[1]", "result": "enhanced"}, {"measurement": "IFN-α level at day 7 for QOD higher than on day 7 for QD", "setting": "IFN-α; 100 mg/kg per dose, p<0.05", "result": 15.8, "unit": "fold"}, {"measurement": "IFN-α levels in plasma after 6 doses", "setting": "IFN-α; 3 on 4 off schedule, day 3 in the second cycle, 100 mg/kg (Compound I equivalents)", "result": "3832±1329"}, {"measurement": "IFN-α response on day 7 lower than response on day 1", "setting": "IFN-α; QD schedule, 100 mg/kg per dose", "result": 3.3, "unit": "fold"}, {"measurement": "IFN-α levels on day 5 compared to day 3", "setting": "IFN-α; [3]", "result": "significantly reduced"}, {"measurement": "IFN-α levels on day 7 compared to day 3", "setting": "IFN-α; [3]", "result": "significantly reduced"}, {"measurement": "Time of peak IFN-α level before decline", "setting": "IFN-α; QD schedule, 7 consecutive days, FIG. 1C (100 mg/kg)", "result": "3-4 days of dosing"}, {"measurement": "IFN-α levels in plasma after 6 doses", "setting": "IFN-α; QD schedule, Day 6, 100 mg/kg (Compound I equivalents)", "result": "922±739"}, {"measurement": "T cell responses over repeated courses", "setting": "[2]", "result": "either maintained or enhanced"}, {"measurement": "Time of peak neopterin level before decline", "setting": "neopterin", "result": "3-4 days of dosing"}]}, {"smiles": "CC(=O)O[C@@H]1C[C@@H](CO)O[C@H]1n1c(=O)sc2cnc(N)nc21", "note": "[Compound I, 5-amino-3-(2′-O-acetyl-3′-deoxy-beta-D-ribofuranosyl)-3H-thiazolo[4,5-d]pyrimidin-2-one]", "values": [{"measurement": "Level of IL-12 expressed relative to IFN-α, QD compared to QOD", "setting": "IL-12", "result": "significantly higher"}, {"measurement": "IL-6 induction versus pre-treatment", "setting": "IL-6; QD (D3) versus QOD (D5)", "result": "significantly induced (p<0.05) by the QD, but not by the QOD schedule"}, {"measurement": "Level of IL-6 expressed relative to IFN-α, QD compared to QOD", "setting": "IL-6; pre-treatment subtracted, p<0.05", "result": "significantly higher"}, {"measurement": "Level of MCP-1 expressed relative to IFN-α, QD compared to QOD", "setting": "MCP-1", "result": "significantly higher"}, {"measurement": "Mean Concentration of IFN-α", "setting": "IFN-α; 3 on 4 off schedule, Day 1, 100 mg/kg per dose as tosylate salt, 3 hours after dosing, mean ± SEM, pre-treatment subtracted", "result": "175 ± 69", "unit": "pg/mL"}, {"measurement": "Mean Concentration of IFN-α", "setting": "IFN-α; 3 on 4 off schedule, Day 3, 100 mg/kg per dose as tosylate salt, 3 hours after dosing, mean ± SEM, pre-treatment subtracted", "result": "4192 ± 768", "unit": "pg/mL"}, {"measurement": "Mean Concentration of IFN-α", "setting": "IFN-α; 3 on 4 off schedule, Day 5 (resting day, no dose), 100 mg/kg per dose as tosylate salt", "result": "Baseline*"}, {"measurement": "Mean Concentration of IFN-α", "setting": "IFN-α; 3 on 4 off schedule, Day 7 (resting day, no dose), 100 mg/kg per dose as tosylate salt", "result": "Baseline*"}, {"measurement": "IFN-α levels on the third day of the cycle", "setting": "IFN-α; first cycle", "result": "4192±768"}, {"measurement": "IFN-α levels on the third day of the cycle", "setting": "IFN-α; second cycle", "result": "3832±1329"}, {"measurement": "IFN-α levels on the third day of the cycle", "setting": "IFN-α; third cycle", "result": "3879±1140"}, {"measurement": "Mean Concentration of IFN-α", "setting": "IFN-α; QD schedule, Day 1, 100 mg/kg per dose as tosylate salt, 3 hours after dosing, mean ± SEM, pre-treatment subtracted", "result": "498 ± 252", "unit": "pg/mL"}, {"measurement": "Mean Concentration of IFN-α", "setting": "IFN-α; QD schedule, Day 3, 100 mg/kg per dose as tosylate salt, 3 hours after dosing, mean ± SEM, pre-treatment subtracted", "result": "8057 ± 1566", "unit": "pg/mL"}, {"measurement": "Mean Concentration of IFN-α", "setting": "IFN-α; QD schedule, Day 5, 100 mg/kg per dose as tosylate salt, 3 hours after dosing, mean ± SEM, pre-treatment subtracted", "result": "2166 ± 615", "unit": "pg/mL"}, {"measurement": "Mean Concentration of IFN-α", "setting": "IFN-α; QD schedule, Day 7, 100 mg/kg per dose as tosylate salt, 3 hours after dosing, mean ± SEM, pre-treatment subtracted", "result": "151 ± 105", "unit": "pg/mL"}, {"measurement": "Mean Concentration of IFN-α", "setting": "IFN-α; QOD schedule, Day 1, 100 mg/kg per dose as tosylate salt, 3 hours after dosing, mean ± SEM, pre-treatment subtracted", "result": "1293 ± 513", "unit": "pg/mL"}, {"measurement": "Mean Concentration of IFN-α", "setting": "IFN-α; QOD schedule, Day 3, 100 mg/kg per dose as tosylate salt, 3 hours after dosing, mean ± SEM, pre-treatment subtracted", "result": "1459 ± 634", "unit": "pg/mL"}, {"measurement": "Mean Concentration of IFN-α", "setting": "IFN-α; QOD schedule, Day 5, 100 mg/kg per dose as tosylate salt, 3 hours after dosing, mean ± SEM, pre-treatment subtracted", "result": "1816 ± 1012", "unit": "pg/mL"}, {"measurement": "Mean Concentration of IFN-α", "setting": "IFN-α; QOD schedule, Day 7, 100 mg/kg per dose as tosylate salt, 3 hours after dosing, mean ± SEM, pre-treatment subtracted", "result": "2375 ± 982", "unit": "pg/mL"}, {"measurement": "TNF-α induction versus pre-treatment", "setting": "TNF-α", "result": "significantly induced (p<0.05) by the QD, but not by the QOD schedule"}]}]}
